{
  "source": "patent US9562085B2",
  "about": "“Antimicrobial peptide” (priority 2013, dated 2017)",
  "key": {"MRSA LUH15051 [1]": {"test_system": "MRSA LUH15051", "experiment": "In vitro killing assay on mid-log phase bacteria, mupirocine-resistant MRSA LUH15051", "type": "cell-based, Staphylococcus aureus", "settings": "compared with LL-37 and P60.4Ac", "source_text": "(§1) The clinical isolate of methicillin-resistant Staphylococcus aureus (MRSA), LUH14616 was kindly provided by Dr. S. Croes, Maastricht University Medical Center, Maastricht, Netherlands (see S.B.M.C. Croes, Microbiol. 2009; 9:229. doi: 10.1186/1471-2180-9-229) and that of mupirocine-resistant MRSA LUH15051 was a gift from Dr. M.E.O.C. Heck (Laboratory for Infectious Diseases and Screening, National Institute for Public Health and Environment, RIVM, Bilthoven, Netherlands).\n(§2) Bacteria were stored at -80° C. until use. Inoculi of mid-log phase bacteria were prepared by incubating isolated MRSA colonies from blood agar plates in Tryptic Soy Broth (TSB) medium (Becton Dickinson, Le Pont de Clax, France) for 2.5 hours and then diluted to the concentration needed.\n(§3) For the in vitro killing assay on mid-log phase bacteria, MRSA LUH14616 and MRSA LUH15051 were resuspended to a concentration of 1×10^6 bacteria/ml in PBS. Subsequently, 200 μl was added to a concentration range of peptides LL-37, P60.4Ac (OP-145) and P10 that were lyophilized in advance. Subsequently, the bacteria-peptide mixture was incubated for 1 hour at 37° C. To establish the killing capacity of these peptides, the suspensions were serially diluted and plated onto DST agar plates to measure viable CFU counts. IC90, IC99 and IC99.9 values are calculated by linear regression analysis."}, "Aspergillus niger": {"test_system": "Aspergillus niger", "experiment": "Activity against Aspergillus niger", "type": "cell-based"}, "[2]": {"test_system": "lipoteichoic acid (LTA), peptidoglycan (PG) and lipopolysaccharides (LPS)", "experiment": "Endotoxin neutralization", "source_text": "The term “anti-inflammatory activity” of a polypeptide as used herein refers to inhibiting, reducing or preventing an inflammatory response in a subject that has been infected by microbes, e.g., bacteria, viruses, fungi, and/or parasites. Anti-inflammatory activity of polypeptides of the disclosure is achieved by inhibiting, reducing or preventing the release of pro-inflammatory microbial compounds, such as lipoteichoic acid (LTA), peptidoglycan (PG) and/or lipopolysaccharides (LPS). Anti-inflammatory activity can be measured by methods known in the art. One example of such method is a lipopolysaccharide neutralization assay. In this method, a polypeptide of the disclosure is mixed with 1 mg of lipopolysaccharides and incubated for 60 minutes. Thereafter, these mixtures were added to 4 times diluted fresh human blood and 18 hours thereafter, the level of cytokines (1L-8, 1L-12p40) in the blood sample are measured by ELISA."}, "[3]": {"test_system": "(drug-resistant) Acinetobacter baumannii strains", "experiment": "Activity against Acinetobacter baumannii", "type": "cell-based"}, "[4]": {"test_system": "methicillin-resistant S. aureus biofilm", "experiment": "Prevention of MRSA biofilm formation", "type": "cell-based", "settings": "on plastic as well as biotic (wounded 3-D human skin model) surfaces"}, "[5]": {"test_system": "Staphylococcus epidermidis", "experiment": "Activity against Staphylococcus epidermidis", "type": "cell-based"}, "[6]": {"test_system": "(drug-resistant) Pseudomonas aeruginosa strains", "experiment": "Activity against Pseudomonas aeruginosa", "type": "cell-based", "settings": "various (drug-resistant) strains"}, "MRSA LUH15051 [7]": {"test_system": "MRSA LUH15051", "experiment": "Burn wound infection model, thermally wounded human skin equivalents, mupirocin-resistant MRSA LUH15051", "type": "cell-based, Staphylococcus aureus", "settings": "compared with LL-37 and P60.4Ac, FIG. 5", "experimental": "(§4) Human skin equivalents were prepared as described in El Ghalbzouri et al. (Lab. Invest. 2004 January; 84(1):102-12). In brief, 5×10^5 normal human keratinocytes were seeded onto fibroblast-populated rat-tail collagen matrices. The collagen matrices were prepared in advance by making a basal (0.1% acetic acid, 4 mg/ml collagen, Hank's Balanced Salt Solution (HBSS, 10×), 1 M NaOH and FCS) and a top collagen layer in which normal human fibroblasts were seeded (4 mg/ml collagen, 10×HBSS, 1 M NaOH, FCS and fibroblasts). Transwell filters with 3 μm pore size (Corning 3414, Costar) were used to culture the human skin equivalents. The collagen matrices were cultured in fibroblast medium for a week. The full thickness human skin equivalents were first cultured submerged in keratinocyte medium for 2 or 3 days at 37° C. and 7.3% CO2 and were then cultured in keratinocyte medium as described above, but with 1% FCS and supplemented with […] L-serine, 10 mM L-carnitine, 1 μM DL-α-tocopherol-acetate, 50 μM ascorbic acid, a lipid supplement that contained palmitic acid, linoleic acid and arachidonic acid in a 1:1:1 ratio and 2.4×10^−5 M bovine serum albumin. […]"}, "MRSA LUH14616 [8]": {"test_system": "MRSA LUH14616", "experiment": "Burn wound infection model, thermally wounded human skin equivalents, MRSA LUH14616", "type": "cell-based, Staphylococcus aureus", "settings": "compared with LL-37 and P60.4Ac, FIG. 4", "experimental": "as §4"}, "[9]": {"test_system": "(fluconazole-resistant) Candida albicans", "experiment": "Activity against Candida albicans", "type": "cell-based"}, "mycobacteria": {"test_system": "mycobacteria", "experiment": "Activity against mycobacteria", "type": "cell-based"}, "S. aureus JAR": {"test_system": "S. aureus JAR", "type": "cell-based", "settings": "JAR, 2 h", "experimental": "S. aureus JAR is described in Campoccia et al. (Int. J. Artif. Organs, 2008 September; 31(9):841-7).\nFor the in vitro killing assay with P10 variants, S. aureus JAR ([…] CFU/ml) were incubated for 2 hours at 37° C. with various concentrations of the peptides in PBS or in PBS/human plasma (1/1, v/v). […] The LC99.9 is the average value of two independent experiments."}, "MRSA LUH14616 [10]": {"test_system": "MRSA LUH14616", "experiment": "In vitro killing assay on mid-log phase bacteria, MRSA LUH14616", "type": "cell-based, Staphylococcus aureus", "settings": "for killing of MRSA LUH14616, in words: comparison among peptides tested, FIGS. 2-3", "source_text": "as §1, §2, §3"}},
  "data": [
    {"substance": "Ac-LAREYKKIVEKLKRWLRQVLRTLR-NH2 (N-terminus and C-terminus assumed) [Peptide P10]", "values": [
      {"measurement": "killing of mupirocine-resistant MRSA, in words", "setting": "MRSA LUH15051 [1]", "value": "more effective than LL-37 and P60.4Ac"},
      {"measurement": "effectiveness against Aspergillus niger", "setting": "Aspergillus niger", "value": "highly effective"},
      {"measurement": "neutralization of endotoxin LTA, PG and LPS", "setting": "[2]", "value": "neutralizes"},
      {"measurement": "effectiveness against Acinetobacter baumannii", "setting": "[3]", "value": "highly effective"},
      {"measurement": "prevention of MRSA biofilm formation", "setting": "[4]", "value": "able to prevent"},
      {"measurement": "effectiveness against Staphylococcus epidermidis", "setting": "[5]", "value": "highly effective"},
      {"measurement": "effectiveness against Pseudomonas aeruginosa", "setting": "[6]", "value": "highly effective"},
      {"measurement": "eliminating mupirocine-resistant MRSA from thermally wounded human skin equivalents, in words", "setting": "MRSA LUH15051 [7]", "value": "more effective than LL-37 and P60.4Ac"},
      {"measurement": "eliminating MRSA from thermally wounded human skin equivalents, in words", "setting": "MRSA LUH14616 [8]", "value": "more effective than LL-37 and P60.4Ac"},
      {"measurement": "effectiveness against Candida albicans", "setting": "[9]", "value": "highly effective"},
      {"measurement": "effectiveness against mycobacteria", "setting": "mycobacteria", "value": "highly effective"},
      {"measurement": "LC99.9 (μM) (50% plasma)", "setting": "S. aureus JAR", "value": 102.4, "unit": "µM"},
      {"measurement": "LC99.9 (μM) (PBS)", "setting": "S. aureus JAR", "value": 1.6, "unit": "µM"},
      {"measurement": "activity compared with P60.4Ac", "setting": "MRSA LUH14616 [10]; MRSA LUH14616, surviving bacteria at similar concentration", "value": "approximately 100 times"},
      {"measurement": "IC99.9", "setting": "MRSA LUH14616 [10]; MRSA LUH14616 in PBS, 1 hour at 37° C., 99.9% Inhibitory Concentration, linear regression", "value": 0.59, "unit": "µM"},
      {"measurement": "effectiveness against MRSA bacteria in log phase, stationary bacteria and bacteria residing in biofilms", "setting": "MRSA LUH14616 [10]; MRSA, strain not stated", "value": "highly effective"},
      {"measurement": "killing of MRSA LUH14616, in words", "setting": "MRSA LUH14616 [10]", "value": "highest activity"},
      {"measurement": "killing of MRSA LUH14616, in words", "setting": "MRSA LUH14616 [10]; listed as Peptide 10", "value": "more effective than LL-37 and P60.4Ac"}
    ]}
  ]
}
